Activity calls are given as the source filed them.
Legend:
[1] = biological target: T1, Microphthalmia-associated transcription factor (Homo sapiens, UniProt O75030); assay: TRPM1 promoter luciferase signal decrease, dose response, MITF inhibitor project, cell-based, SK-MEL-5, cherry-picked, set 3 (AID 493073); assay type: functional
T1 sequence (O75030 whole entry): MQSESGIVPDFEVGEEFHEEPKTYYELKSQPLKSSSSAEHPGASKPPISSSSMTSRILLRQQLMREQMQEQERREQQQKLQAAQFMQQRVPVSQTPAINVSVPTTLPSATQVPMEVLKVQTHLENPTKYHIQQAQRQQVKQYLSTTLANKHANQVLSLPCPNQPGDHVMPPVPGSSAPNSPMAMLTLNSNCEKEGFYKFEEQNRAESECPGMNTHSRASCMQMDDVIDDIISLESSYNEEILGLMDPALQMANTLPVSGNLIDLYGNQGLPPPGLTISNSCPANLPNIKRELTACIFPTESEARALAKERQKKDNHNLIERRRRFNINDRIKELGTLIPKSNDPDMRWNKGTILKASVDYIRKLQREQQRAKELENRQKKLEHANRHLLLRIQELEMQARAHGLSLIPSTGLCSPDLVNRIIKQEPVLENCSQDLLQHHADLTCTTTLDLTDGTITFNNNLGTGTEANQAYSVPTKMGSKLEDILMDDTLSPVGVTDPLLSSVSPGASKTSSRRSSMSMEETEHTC

[2] = biological target: T2, Rac GTPase-activating protein 1 (Homo sapiens, UniProt Q9H0H5); assay: MgcRacGAP GTPase-activating activity inhibitors, confirmation, biochemical, ADP Hunter fluorescence, primary and confirmatory (AID 624330); assay type: functional
T2 sequence (Q9H0H5 whole entry): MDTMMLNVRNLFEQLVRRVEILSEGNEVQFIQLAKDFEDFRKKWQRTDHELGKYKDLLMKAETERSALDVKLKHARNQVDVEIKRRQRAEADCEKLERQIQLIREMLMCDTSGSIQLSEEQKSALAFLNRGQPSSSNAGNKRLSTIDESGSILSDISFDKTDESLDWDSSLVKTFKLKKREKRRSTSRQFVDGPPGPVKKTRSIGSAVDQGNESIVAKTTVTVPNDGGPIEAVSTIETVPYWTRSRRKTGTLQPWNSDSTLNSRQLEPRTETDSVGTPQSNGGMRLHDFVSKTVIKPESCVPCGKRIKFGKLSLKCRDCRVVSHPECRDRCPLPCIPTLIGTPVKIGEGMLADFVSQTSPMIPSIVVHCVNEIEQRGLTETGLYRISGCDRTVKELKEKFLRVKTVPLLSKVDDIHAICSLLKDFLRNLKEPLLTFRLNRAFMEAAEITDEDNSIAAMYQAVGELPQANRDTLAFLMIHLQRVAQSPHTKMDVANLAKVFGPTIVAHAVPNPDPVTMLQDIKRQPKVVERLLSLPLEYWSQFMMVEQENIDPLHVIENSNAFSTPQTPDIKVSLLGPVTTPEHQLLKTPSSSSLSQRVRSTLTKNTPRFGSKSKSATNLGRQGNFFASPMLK

[3] = biological target: Heat shock protein HSP 90-alpha (Homo sapiens, UniProt P07900); assay type: functional, organism-based
[4] = Luminescence Cell-Based Dose Response HTS to Identify Activators of Luciferase Translation or Activity in H4 […] Cells. [Related pubchem assays: 1829 (Project Summary), 1814 (Primary HTS)]; assay type: functional
[5] = tested on: H4; assay: Luminescence Cell-Based Dose Response HTS to Identify Activators of 5'UTR Stem-Loop Driven Prion Protein mRNA Translation in H4 Neuroglioblastoma Cells. [Related pubchem assays: 1829 (Project Summary), 1814 (Primary HTS)]; assay type: functional; settings: Homo sapiens
[6] = Luminescence Cell-Based Dose Confirmation HTS to Identify Activators of 5'UTR Stem-Loop Driven Alpha-Synuclein mRNA Translation in H4 Neuroglioblastoma Cells. [Related pubchem assays: 1829 (Project Summary), 1814 (Primary HTS)]; assay type: functional
[7] = inhibitors of firefly luciferase expression or activity, dose response, H4 neuroglioma cells, luminescence (AID 1990); assay type: functional, cell-based
[8] = inhibitors of SNCA 5'UTR-driven reporter translation, confirmation, H4 neuroglioma cells, luminescence (AID 1988); assay type: functional, cell-based
[9] = Luminescence Cell-Based Dose Response HTS to Identify Inhibitors of 5'UTR Stem-Loop Driven Prion Protein mRNA Translation in H4 Neuroglioblastoma Cells. [Related pubchem assays: 1827 (Project Summary), 1813 (Primary HTS)]; assay type: functional
[10] = biological target: T3, Ubiquitin-conjugating enzyme E2 N (Homo sapiens, UniProt P61088); assay type: functional;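 also: Dose-response confirmation in a TR-FRET assay detecting UBC13-driven polyubiquitin chain formation, inhibition measured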
T3 sequence (P61088 whole entry): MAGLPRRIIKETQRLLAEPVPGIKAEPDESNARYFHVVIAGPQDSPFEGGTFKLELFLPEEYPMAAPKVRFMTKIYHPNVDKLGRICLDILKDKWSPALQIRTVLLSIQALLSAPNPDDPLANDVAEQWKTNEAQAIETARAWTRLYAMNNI

[11] = tested on: HEK293; assay: inhibitors of LMP1-driven NF-kB reporter, dose response, cell-based, HEK293, luciferase, cherry-pick (AID 588343); assay type: functional; settings: Homo sapiens
[12] = inhibitors of intracellular T. cruzi replication, confirmation, NIH3T3 host cells, beta-gal luminescence (AID 2044); assay type: functional, cell-based;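 also: intracellular parasites grown in NIH/3T3 mouse fibroblasts as host cells; luminescent beta-galactosidase reporter signal from transgenic T. cruzi replicating inside host cells; inhibitors lower the luminescence signal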
[13] = tested on: Streptococcus sp. 'group A'; assay: growth inhibition of control SK(-) GAS strain, dose response, counter-screen for streptokinase expression inhibitor project, luminescence, kanamycin, BacTiterGlo, confirmation (AID 1900); assay type: functional, organism-based
[14] = cytotoxicity toward NIH3T3 fibroblasts, dose response, counter-screen, cell-based, ATP luminescence, mouse fibroblasts (AID 2010); assay type: functional;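 also: cells exposed to compound for about 90 hours before reading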
[15] = tested on: Streptococcus; assay: Group A Streptococcus viability loss, dose response, counter-screen for streptokinase expression inhibitor project, luminescence, BacTiterGlo (AID 1915); assay type: functional, organism-based;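 also: potency for reduction of bacterial viability or growth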
[16] = biological target: T4, Streptokinase A (Streptococcus pyogenes serotype M1, UniProt P10520); assay: S. pyogenes streptokinase expression inhibitors, potency, dose response, plasminogen activation absorbance, OD405 (AID 1914); assay type: functional, Streptococcus pyogenes M1 GAS;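 also: secreted streptokinase activity via plasminogen activation per viability signal from cell pellet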
T4 sequence (P10520 whole entry): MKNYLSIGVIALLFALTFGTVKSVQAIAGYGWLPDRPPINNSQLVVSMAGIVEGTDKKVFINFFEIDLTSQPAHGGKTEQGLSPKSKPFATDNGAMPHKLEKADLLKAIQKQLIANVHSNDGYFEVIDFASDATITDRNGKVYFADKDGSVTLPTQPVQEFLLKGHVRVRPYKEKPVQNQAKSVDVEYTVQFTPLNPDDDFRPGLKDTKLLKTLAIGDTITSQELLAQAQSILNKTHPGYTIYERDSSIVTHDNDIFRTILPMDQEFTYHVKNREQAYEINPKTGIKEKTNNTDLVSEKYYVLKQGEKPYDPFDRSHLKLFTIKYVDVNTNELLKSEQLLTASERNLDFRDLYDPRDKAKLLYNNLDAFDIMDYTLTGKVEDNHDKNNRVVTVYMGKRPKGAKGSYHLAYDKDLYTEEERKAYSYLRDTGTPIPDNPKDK

[17] = tested on: INS1; assay: beta cell apoptosis inhibitors, cytokine rescue, dose response, luminescence, retest (AID 449756); assay type: functional, cell-based; settings: Rattus norvegicus;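 also: cell death triggered by IL-1 beta plus TNF-alpha plus IFN-gamma mixture; protective hits raise ATP signal compared with cytokine alone wells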
[18] = NIH-3T3 fibroblast cytotoxicity, dose response, cytotoxicity control, cell-based, fluorescence, Alamar Blue, secondary assay (AID 2327); assay type: functional;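 also: NIH-3T3 mouse fibroblasts cultured with fluconazole at 8 µg/mL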
[19] = C. albicans growth with fluconazole, confirmation, fluorescence, retest (AID 2467); assay type: functional, cell-based
[20] = THP-1 cell cytotoxicity, dose response, cytotoxicity control for non-replicating M. tuberculosis project (AID 489025); assay type: functional
[21] = biological target: Cytochrome P450 3A4 (Homo sapiens, UniProt P08684);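 also: CYP3A4 tested as one member of a cytochrome P450 panel screen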
[22] = cells; assay type: functional

Cytochrome P450 3A4, sequence (P08684 whole entry): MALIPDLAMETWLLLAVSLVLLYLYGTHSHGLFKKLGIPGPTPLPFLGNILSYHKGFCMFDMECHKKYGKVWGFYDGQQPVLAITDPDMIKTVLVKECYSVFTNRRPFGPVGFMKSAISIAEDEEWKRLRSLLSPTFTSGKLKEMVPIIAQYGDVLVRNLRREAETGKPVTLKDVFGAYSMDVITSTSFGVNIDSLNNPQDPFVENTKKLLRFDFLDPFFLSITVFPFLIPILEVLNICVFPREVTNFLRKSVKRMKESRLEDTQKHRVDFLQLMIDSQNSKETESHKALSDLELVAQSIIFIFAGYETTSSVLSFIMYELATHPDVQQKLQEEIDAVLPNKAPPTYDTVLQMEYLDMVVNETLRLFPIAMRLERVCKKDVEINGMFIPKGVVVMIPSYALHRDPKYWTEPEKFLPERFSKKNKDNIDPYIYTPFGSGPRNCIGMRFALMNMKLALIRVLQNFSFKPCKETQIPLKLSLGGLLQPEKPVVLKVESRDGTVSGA

O=C(O)c1ccc(C(=O)Nc2ccc(F)cc2)cc1
AC50 [1]: 19.8 µM (active)

COc1ccc(CN2CCN(Cc3ccc(C(F)(F)F)cc3)CC2)cc1
IC50 [2]: 99.6 µM (active)

O=C(NCCCCc1ccccc1)c1ccc(Br)cc1
AC50 [3]: 3.65 µM (active)

COc1ccc2cc(OCC(=O)NNC(=O)Nc3ccc(C(C)=O)cc3)ccc2c1
EC50 [4]: 33.4 µM (active) | EC50 [5]: 20.3 µM (active) | IC50 [2]: 239 µM (active) | EC50 [6]: 12.4 µM (active)

COc1cc(CNCc2ccccc2C(F)(F)F)cc(OC)c1
IC50 [2]: 113 µM (active)

O=C(Nc1ccc(N2CCOCC2)cc1)c1cnsn1
EC50 [7]: 3.19 µM (active) | AC50 [1]: 3.05 µM (active) | EC50 [8]: 1.9 µM (active) | EC50 [9]: 5.28 µM (active)

COc1cc(/C=C/C(=O)OCC(=O)N(C)Cc2ccccc2)ccc1O
IC50 [2]: 35.2 µM (active)

COc1ccc(-c2cc(C(=O)N3CCN(c4ccccc4F)CC3)c3ccccc3n2)c(OC)c1
AC50 [3]: 5.77 µM (active)

CC1(c2nnc(Cc3ccccc3)o2)CC(c2ccccc2[N+](=O)[O-])=NO1 (configuration not stated)
AC50 [3]: 1.59 µM (active)

CC(C(=O)Nc1ccc(F)c(F)c1)N1CCN(C)CC1 (configuration not stated)
IC50 [2]: 83.1 µM (active)

Cc1c(OCC(=O)C(C)(C)C)ccc2c(-c3ccccc3)cc(=O)oc12
AC50 [3]: 7.83 µM (active)

COc1cc2nc(=S)[nH]c(Nc3ccc(NC(C)=O)cc3)c2cc1OC
IC50 [10]: > 20 µM (inactive) | IC50 [2]: 306 µM (active)

Oc1c(N=NC(S)=Nc2ccccc2F)c2ccccc2n1Cc1ccc(F)cc1
AC50 [11]: 4.02 µM (active) | EC50 [12]: 1.06 µM (active) | EC50 [13]: 2.84 µM (active) | EC50 [14]: 1.62 µM (active) | EC50 [15]: 17.8 µM (active) | EC50 [16]: 0.607 µM (inconclusive)

COc1ccc2c(c1)[C@H]1[C@H](CO2)[C@H](c2ccccc2)[C@]2(C)C(=O)Nc3ccc(C)cc3C(=O)N12
AC50 [3]: 6.38 µM (active)

Cc1ccc(CCNc2ccc3ccccc3c2)cn1
IC50 [2]: 105 µM (active)

COc1ccccc1-c1sc2ccccc2c1-c1ccc(O)cc1
AC50 [3]: 5.22 µM (active)

COc1ccc(C(=O)N/N=C/c2sc3ccccc3c2O)cc1
EC50 [7]: 12.7 µM (active) | AC50 [17]: 1.8 µM (active) | EC50 [8]: 10.2 µM (active) | AC50 [3]: 2.68 µM (active) | EC50 [9]: 11 µM (active)

CC1(C(=O)N/N=C/c2ccc([N+](=O)[O-])o2)CC1(Br)Br (configuration not stated)
EC50 [18]: > 150 µM (inactive) | AC50 [1]: 10.3 µM (active) | EC50 [19]: 2.46 µM (active)

O=C(N/N=C/c1ccc(Br)s1)c1ccccc1[N+](=O)[O-]
CC50 [20]: > 40 µM (active) | AC50 [21]: 17.8 µM (inconclusive) | IC50 [22]: 49.2 µM (active)

Cc1ccc(-c2cs/c(=N\c3cccnc3)n2CCCn2ccnc2)cc1C
AC50 [11]: 6.59 µM (active) | EC50 [12]: 0.118 µM (active) | EC50 [14]: > 60 µM (not active)

— ChEMBL document CHEMBL1201862, “PubChem BioAssay data set” (2004)
